Reference: patent US11655217B2, “Pyrazole MAGL inhibitors” (H. Lundbeck A/S, priority 2017, dated 2023)

Target: MAGL (Mus musculus (Mouse), UniProt O35678)
Assay: Mouse brain proteomes from inhibitor treated mice (oral gavage, sacrificed 4 h after administration, ABPP analysis)
Conditions: 5 mg/kg oral gavage
Experimental: Preparation of Mouse Brain Proteomes from Inhibitor Treated Mice.
Inhibitors were administered to wild-type C57Bl/6J by oral gavage in a vehicle of polyethylene glycol.

Sequence of MAGL (O35678 whole entry): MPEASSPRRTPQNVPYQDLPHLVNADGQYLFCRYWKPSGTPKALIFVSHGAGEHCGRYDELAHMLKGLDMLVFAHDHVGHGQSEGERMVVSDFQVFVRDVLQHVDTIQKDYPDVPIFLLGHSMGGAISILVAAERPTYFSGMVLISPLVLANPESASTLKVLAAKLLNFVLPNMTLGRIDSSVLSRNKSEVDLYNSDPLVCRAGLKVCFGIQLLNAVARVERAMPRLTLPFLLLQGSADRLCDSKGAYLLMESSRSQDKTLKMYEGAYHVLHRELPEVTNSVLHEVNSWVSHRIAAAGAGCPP

| SMILES | MAGL % inh. 5 mg/kg (mouse) |
| --- | --- |
| O=C(O)c1nn(C(=O)N2CCC3(CCN(Cc4cccc(Cl)c4C(F)(F)F)C3)CC2)cc1Cl [Example 26, 4-Chloro-1-(2-(3-chloro-2-(trifluoromethyl)benzyl)-2,8-diazaspiro[4.5]decane-8-carbonyl)-1H-pyrazole-3-carboxylic Acid] | D (% inhibition is greater than or equal to 0% and less than 25%) |
| NC(=O)c1ccn(C(=O)N2CC3CN(Cc4ccc(C5(C(=O)O)CCOCC5)cc4C(F)(F)F)CC3C2)n1 (stereo not shown) [Example 35, 4-(4-((5-(3-carbamoyl-1H-pyrazole-1-carbonyl)hexahydropyrrolo[3,4-c]pyrrol-2(1H)-yl)methyl)-3-(trifluoromethyl)phenyl)tetrahydro-2H-pyran-4-carboxylic acid] | D (% inhibition is greater than or equal to 0% and less than 25%) |
| CC(C)c1cccc(O[C@H]2C[C@@H]3CN(C(=O)n4ccc(C(=O)O)n4)C[C@@H]3C2)c1 [Example 220, 1-(trans-5-(3-isopropylphenoxy)ocatahydrocyclo-penta[c]pyrrole-2-carbonyl)-1H-pyrazole-3-carboxylic acid] | C (% inhibition is greater than or equal to 25% and less than 50%) |
| O=C(O)c1ccn(C(=O)N2C[C@H]3C[C@H](Oc4cc(Cl)cc(Cl)c4)C[C@H]3C2)n1 [Example 230, 1-(trans-5-(3,5-dichlorophenoxy)octahydrocyclo-penta[c]pyrrole-2-carbonyl)-1H-pyrazole-3-carboxylic acid] | D (% inhibition is greater than or equal to 0% and less than 25%) |
| O=C(O)c1ccn(C(=O)N2C[C@H]3C[C@H](Oc4cccc(-c5cccnc5)c4)C[C@H]3C2)n1 [Example 241, 1-(trans-5-(3-(pyridin-3-yl)phenoxy)octa-hydrocyclopenta-[c]pyrrole-2-carbonyl)-1H-pyrazole-3-carboxylic acid] | D (% inhibition is greater than or equal to 0% and less than 25%) |
| Cc1cc(-c2ccccc2)ccc1CN1CCN(C(=O)n2ccc(C(=O)O)n2)[C@H](C)C1 [Example 245, (R)-1-(2-methyl-4-((3-methyl-[1,1′-biphenyl]-4-yl)methyl)piperazine-1-carbonyl)-1H-pyrazole-3-carboxylic acid] | D (% inhibition is greater than or equal to 0% and less than 25%) |
| Cc1ccc(Oc2cccc(CN3CCN(C(=O)n4ccc(C(=O)O)n4)CC3)c2)cc1 [Example 251, 1-(4-(3-(p-tolyloxy)benzyl)piperazine-1-carbonyl)-1H-pyrazole-3-carboxylic acid] | D (% inhibition is greater than or equal to 0% and less than 25%) |
| Cc1cn(C(=O)N2C[C@H]3C[C@H](OCc4cc(F)cc(Cl)c4)C[C@H]3C2)nc1C(=O)O [Example 252, 1-(trans-5-((3-chloro-5-fluorobenzyl)oxy)octahydrocyclo-penta[c]pyrrole-2-carbonyl)-4-methyl-1H-pyrazole-3-carboxylic acid] | D (% inhibition is greater than or equal to 0% and less than 25%) |
| C[C@@H]1C[C@H](N(C)Cc2cccc(C(F)(F)F)c2)CCN1C(=O)n1ccc(C(N)=O)n1 [Example 257, 1-((2R,4R)-2-methyl-4-(methyl(3-(trifluoromethyl)benzyl)amino)piperidine-1-carbonyl)-1H-pyrazole-3-carboxamide] | A (% inhibition is greater than or equal to 75%) |
| C[C@@H]1C[C@@H](N(C)Cc2cccc(C(F)(F)F)c2)CCN1C(=O)n1ccc(C(N)=O)n1 [Example 260, 1-((2R,4S)-2-methyl-4-(methyl(3-(trifluoromethyl)benzyl)amino)piperidine-1-carbonyl)-1H-pyrazole-3-carboxamide] | A (% inhibition is greater than or equal to 75%) |
